Consider 16 molecules from article PMC8398805, “Chemical Characterization and Anti-HIV-1 Activity Assessment of Iridoids and Flavonols from Scrophularia trifoliata” (Molecules, 2021).

“And” between values parts separate entries of the source, which are not always exact repeats. Equal entries are not always repeated. Where two headings read alike, the source gives them in different places. Marks after values point to notes of the source that are not given here.

The target of assay [1] is T1, HIV-1 RT-associated RNase H activity (Human immunodeficiency virus type 1 group M subtype B, UniProt P04585).
T1 construct: The 1:1 ration between the p66/p51 subunits was also verified; made in house; host or cells: E. coli strain M15 with the p6HRT-prot vector
Description: RNase H polymerase-independent cleavage assay. Conditions: for IC50: compound concentration required to inhibit the HIV-1 RNase H activity by 50%; for remaining activity at 100 µM: read-out: HIV-1 RNase H percentage of control. The assay is classed as biochemical. How it is done:
HIV-1 RT group M subtype B. Heterodimeric RT was expressed and purified essentially as previously described. Briefly, protein was expressed in E. coli strain M15 containing the p6HRT-prot vector, induced with 1.7 mM isopropyl β-D-1-thiogalactopyranoside for 4 h. Protein purification was carried out with a BioLogic LP system (Biorad), using a combination of immobilized metal affinity and ion exchange chromatography. First, crude bacterial extract was clarified by centrifugation and loaded onto a Ni^2+-NTA-Sepharose column pre-equilibrated with a loading buffer (50 mM sodium phosphate buffer pH 7.8, containing 0.3 M NaCl, 10% glycerol, and 10 mM imidazole); RT was eluted with an imidazole gradient in wash buffer (0–0.5 M). Fractions were collected and protein purity was checked by SDS-PAGE and found to be higher than 90%. The 1:1 ration between the p66/p51 subunits was also verified. Enzyme-containing fractions were pooled and diluted 1:1 with 50 mM sodium phosphate buffer pH 7.0, containing 10% glycerol, and then loaded into a Hi-trap heparin HP GE (Healthcare Lifescience) using a loading buffer (50 mM sodium phosphate buffer pH 7.0, containing 10% glycerol and 150 mM NaCl). RT was eluted with Elute Buffer 2 (50 mM Sodium Phosphate pH 7.0, 10% glycerol, 1 M NaCl). Fractions were collected and protein was dialyzed and stored in a buffer containing 50 mM Tris-HCl pH 7.0, 25 mM NaCl, 1 mM EDTA, and 50% glycerol. Catalytic activities and protein concentrations were determined. Enzyme-containing fractions were pooled and aliquots were stored at −80 °C.
HIV RT-associated RNase H activity was measured as described (using the RNase H inhibitor RDS175911 as a control.) In a 100 µL reaction volume containing 50 mM Tris-HCl buffer with pH 7.8, 6 mM MgCl2, 1 mM dithiothreitol (DTT), 80 mM KCl, 0.25 µM hybrid RNA/DNA 5′-[…]-Fluorescin-3′ (HPLC, dry, QC: Mass Check) (available from Metabion (Planegg, Germany)) 5′-Dabcyl-[…]-3′ (HPLC, dry, QC: Mass Check), there were increasing concentrations of an inhibitor, whose dilution was made in water, and 20 ng of wt RT, according to a linear range of dose-response curve. The reaction mixture was incubated for 1 h at 37 °C, stopped by the addition of EDTA, and products were measured with a multilabel counter plate reader Victor 3 (Perkin Elmer model 1420-051 (Waltham, MA, USA)) equipped with filters for 490/528 nm (excitation/emission wavelength).

The target of assay [2] is T2, HIV-1 IN in the presence of LEDGF/p75 (Human immunodeficiency virus type 1 group M subtype B, UniProt P04585).
T2 construct: Recombinant 6xHis tagged IN protein was expressed and purified as described previously; 6xHis; made in house; host or cells: Escherichia coli BL21 (DE3) for IN
Nature of the assay: HTRF LEDGF-dependent integrase assay. The assay is classed as biochemical. Conditions: for IC50: concentration required to inhibit IN catalytic activities, in the presence of LEDGF, by 50%; for remaining activity at 100 µM: in the presence of 100 µM compound concentration, read-out: HIV-1 IN LEDGF-dependent percentage of control. The protocol: Recombinant 6xHis tagged IN protein was expressed and purified as described previously. Briefly, IN was expressed in Escherichia coli strain BL21 (DE3). Initial purification was done using a Ni-Sepharose column with an imidazole gradient from 20 mM to 500 mM concentration in a 50 mM HEPES (pH 7.5) buffer containing 1 M NaCl, 7.5 mM CHAPS, and 2 mM β-mercaptoethanol. This was followed by a heparin column purification with a NaCl gradient from 0 to 1 M concentrations. His-LEDGF was purified by loading precipitate of cell lysate onto a heparin column and was eluted with an increasing NaCl gradient (200 mM to 1 M) in a 50 mM HEPES (pH 7.5) buffer containing 7.5 mM CHAPS and 2 mM β-mercaptoethanol. Peak fractions were pooled and loaded onto a Superdex 200 GL column and eluted in a buffer containing 50 mM HEPES (pH 7.5), 200 mM NaCl, and 2 mM β-mercaptoethanol. Fractions containing LEDGF were pooled and stored in 15% glycerol at −80 °C.
The HTRF assay allows measuring the inhibition of 3′-processing and strand-transfer IN reactions in the presence of recombinant LEDGF/p75 cellular cofactor [43]. Briefly, 50 nM IN was pre-incubated with an increasing concentration of compounds for 1 h at room temperature in reaction buffer containing 20 mM HEPES pH 7.5, 1 mM DTT, 1% Glycerol, 20 mM MgCl2, 0.05% Brij-35, and 0.1 mg/mL BSA. […] After the incubation, 4 nM of Europium-Streptavidin were added to the reaction mixture, and the HTRF signal was recorded using a Perkin Elmer Victor 3 plate reader using a 314 nm for the excitation wavelength and 668 and 620 nm for the wavelength of the acceptor and the donor substrate emission, respectively.
(In TR-FRET formats the signal depends on donor and acceptor labels being close together.)

The subject of another assay is HIV-1 RT. Conditions: cited from earlier work.
[3] abbreviates: in the presence of 100 µM compound concentration.

Regarding `C[C@@H]1O[C@@H](OC[C@H]2O[C@@H](Oc3c(-c4ccc(O)c(O)c4)oc4cc(O)cc(O)c4c3=O)[C@H](O)[C@@H](O)[C@@H]2O)[C@H](O)[C@H](O)[C@H]1O` [Compound 8, rutin], the IC50 in assay [1] was over 100 µM. In addition, the remaining activity at 100 µM in assay [1] (setting [3]) came to 100%. Moreover, in assay [2], the “HIV-1 IN inhibition (in words)” value is recorded as “submicromolar concentration” and the IC50 stood at 0.33 ± 0.04 µM.

Turning to `O=C(O)[C@H]1O[C@@H](Oc2cc3oc(-c4ccccc4)cc(=O)c3c(O)c2O)[C@H](O)[C@@H](O)[C@@H]1O` [baicalin], in the assay with HIV-1 RT (baicalin from Scutellaria baicalensis), the “HIV-1 RT IC50” value is reported as 0.2 µg/mL.

For `CO[C@H]1[C@@H]2C[C@@H]3OC[C@](O)([C@H]2[C@H](O[C@@H]2O[C@H](CO)[C@@H](O)[C@H](O)[C@H]2O)O3)[C@@H]1O` [Compound 6, methylscutelloside], the IC50 in assay [1] was over 100 µM; in assay [2] it was 100 ± 0.5 µM. In assay [1] (setting [3]), the remaining activity at 100 µM came to 100%.

As for `COC1C2C=COC(OC3OC(CO)C(O)C(O)C3O)C2C2(O)COC12` (stereo not shown) [Compound 5, trifoliatoside A], the IC50 in assay [1] is over 100 µM. Besides, the remaining activity at 100 µM in assay [1] (setting [3]) came out at 93%. Also, in assay [2], the “HIV-1 IN inhibition (in words)” value is reported as “able to inhibit IN, selectively” and the IC50 came to 95.5 ± 4.5 µM.

As to `CC(=O)O[C@@]1(C)C[C@@H](O)C2C=CO[C@@H](O[C@@H]3O[C@H](CO)[C@@H](O)[C@H](O)[C@H]3O)C21` (stereo partly shown) [Compound 7, ajugoside], the IC50 in assay [1] is over 100 µM; in assay [2] it was 74 ± 3.5 µM. The remaining activity at 100 µM in assay [1] (setting [3]) was determined as 100%. For the same molecule, the “HIV-1 IN inhibition (in words)” value in assay [2] is “able to inhibit IN, selectively”.

With `O=c1c(OC2O[C@H](CO)[C@@H](O)[C@H](O)[C@H]2O)c(-c2ccc(O)cc2)oc2cc(O)cc(O)c12` (stereo partly shown) [Compound 11, kaempferol-3-O-glucopyranoside], the IC50 in assay [1] is over 100 µM; in assay [2], 0.11 µM and 0.024 µM. Moreover, in assay [1] (setting [3]), the remaining activity at 100 µM came out at 100%. For the same molecule, the “HIV-1 IN inhibition (in words)” value in assay [2] is on record as “submicromolar concentration”.

`C[C@]1(OC(=O)/C=C\c2ccccc2)C[C@@H](O)C2C=CO[C@@H](O[C@@H]3O[C@H](CO)[C@@H](O)[C@H](O)[C@H]3O)C21` (stereo partly shown) [Compound 13, trifoliatoside B]: the half-inhibitory concentration (IC50) in assay [1] was over 100 µM; in assay [2], 5.96 ± 0.1 µM. Moreover, the remaining activity at 100 µM in assay [1] (setting [3]) stood at 92%.

Regarding `O=c1c(O)c(-c2ccc(O)cc2)oc2cc(O)cc(O)c12` [kaempferol], the “HIV-1 RT IC50” value in the assay on HIV-1 RT (kaempferol from Securigera securidaca) is listed as 50 µg/mL.

Turning to `CC1OC(Oc2cc(O)c3c(=O)c(OC4OC(CO)C(O)C(O)C4O)c(-c4ccc(O)cc4)oc3c2)C(O)C(O)C1O` (stereo not shown) [Compound 9, kaempferol-7-O-rhamnosyl-3-O-glucopyranoside], the concentration for half-maximal inhibition (IC50) in assay [1] is over 100 µM. In assay [1] (setting [3]), the remaining activity at 100 µM was 100%. In addition, in assay [2], the “HIV-1 IN inhibition (in words)” value is given as “submicromolar concentration”; the IC50 is 0.024 µM and 0.11 µM.

As to kaempferol-3-O-rutinoside [Compound 10], the “HIV-1 RNase H percentage of control” value in assay [1] (setting [3]) is >100 (100%) ^c.

Take `OCC1=C[C@@H](O)[C@@H]2C=CO[C@@H](O[C@@H]3O[C@H](CO)[C@@H](O)[C@H](O)[C@H]3O)[C@H]12` [Compound 2, aucubin]: the IC50 in assay [1] and in assay [2] was over 100 µM throughout. Further, the remaining activity at 100 µM in assay [1] (setting [3]) and in assay [2] was 100% in each case.

As for `C[C@]1(OC(=O)/C=C/c2ccccc2)C[C@@H](O)C2C=CO[C@@H](O[C@@H]3O[C@H](CO)[C@@H](O)[C@H](O)[C@H]3O)C21` (stereo partly shown) [Compound 12, laterioside], in assay [1], the “HIV-1 RNase H inhibition (in words)” value was “inactive” and the IC50 was over 100 µM. In addition, in assay [1] (setting [3]), the remaining activity at 100 µM is 100%. Moreover, in assay [2], the “HIV-1 IN inhibition (in words)” value was “inactive”, the IC50 is over 100 µM and the remaining activity at 100 µM worked out at 80%.

For the molecule `CO[C@H]1[C@@H]2C=CO[C@@H](O[C@@H]3O[C@H](CO)[C@@H](O)[C@H](O)[C@H]3O)[C@@H]2[C@@]2(CO)O[C@@H]12` [Compound 4, methylcatalpol], the IC50 in assay [1] and in assay [2] was over 100 µM in each case. The results for the remaining activity at 100 µM in assay [1] (setting [3]) and in assay [2] were 100% and 80%, respectively.

For `C[C@]1(O)C[C@@H](O)[C@@H]2C=CO[C@@H](O[C@@H]3O[C@H](CO)[C@@H](O)[C@H](O)[C@H]3O)[C@@H]21` [Compound 3, ajugol], the IC50 in assay [1] and in assay [2] was over 100 µM in each case. For the same molecule, the remaining activity at 100 µM in assay [1] (setting [3]) was determined as 100%; in assay [2] it was 77%.

`OC[C@H]1O[C@@H](O[C@@H]2OC=C[C@H]3[C@H](O)[C@@H]4O[C@]4(CO)[C@@H]23)[C@H](O)[C@@H](O)[C@@H]1O` [Compound 1, catalpol]: the IC50 in assay [1] and in assay [2] was over 100 µM throughout. The remaining activity at 100 µM in assay [1] (setting [3]) and in assay [2] was 100% in each case.

`CCOC(=O)C(=O)CC(=O)/C=C/c1cccn1Cc1ccccc1Cl` [RDS1759, reference compound]: in assay [1], the IC50 is 7.3 ± 0.1 µM.

For orientation: IC50 means the concentration at which inhibition is half-maximal.
